Source: ChEMBL document CHEMBL5042496, “An unanticipated discovery towards novel naphthalimide corbelled aminothiazoximes as potential anti-MRSA agents and allosteric modulators for PBP2a” (Eur J Med Chem, 2022)
Values after ≈ are worked out from the molar mass of the structure shown.

Tests used:
[1] = tested on: Acinetobacter baumannii; test: Antibacterial activity against Acinetobacter baumannii assessed as bacterial growth inhibition measured after 24 hrs by two fold serial dilution technique; format: functional
[2] = tested on: Enterococcus faecium; test: Antibacterial activity against Enterococcus faecium assessed as bacterial growth inhibition measured after 24 hrs by two fold serial dilution technique; format: functional
[3] = tested on: Pseudomonas aeruginosa; test: Antibacterial activity against Pseudomonas aeruginosa assessed as bacterial growth inhibition measured after 24 hrs by two fold serial dilution technique; format: functional
[4] = tested on: Escherichia coli; test: Antibacterial activity against Escherichia coli assessed as bacterial growth inhibition measured after 24 hrs by two fold serial dilution technique; format: functional
[5] = tested on: Pseudomonas aeruginosa; test: Antibacterial activity against Pseudomonas aeruginosa ATCC 27853 assessed as bacterial growth inhibition measured after 24 hrs by two fold serial dilution technique; format: functional
[6] = tested on: Escherichia coli; test: Antibacterial activity against Escherichia coli ATCC 25922 assessed as bacterial growth inhibition measured after 24 hrs by two fold serial dilution technique; format: functional
[7] = Hemolytic activity in human RBC assessed as hemolysis incubated for 1 hr; format: toxicity, cell-based, Erythrocyte; details: red blood cells
[8] = tested on: Staphylococcus aureus; test: Antibacterial activity against Staphylococcus aureus ATCC 25923 assessed as bacterial growth inhibition measured after 24 hrs by two fold serial dilution technique; format: functional
[9] = tested on: Staphylococcus aureus; test: Antibacterial activity against Staphylococcus aureus assessed as bacterial growth inhibition measured after 24 hrs by two fold serial dilution technique; format: functional
[10] = tested on: Staphylococcus aureus; test: Antibacterial activity against methicillin-resistant Staphylococcus aureus assessed as bacterial growth inhibition measured after 24 hrs by two fold serial dilution technique; format: functional
[11] = tested on: Staphylococcus aureus; test: Antibacterial activity against Staphylococcus aureus ATCC 29213 assessed as bacterial growth inhibition measured after 24 hrs by two fold serial dilution technique; format: functional
[12] = tested on: Klebsiella pneumoniae; test: Antibacterial activity against Klebsiella pneumoniae assessed as bacterial growth inhibition measured after 24 hrs by two fold serial dilution technique; format: functional

Structure (SMILES) | MIC [1] [µg/mL] | MIC [2] [µg/mL] | MIC [3] [µg/mL] | MIC [4] [µg/mL] | MIC [5] [µg/mL] | MIC [6] [µg/mL] | HC50 at 1 h [7] [µg/mL] | MIC [8] [µg/mL] | MIC [9] [µg/mL] | MIC [10] [µg/mL] | MIC [11] [µg/mL] | MIC [12] [µg/mL]
CO/N=C(\C(=O)N1CCN(c2ccc3c4c(cccc24)C(=O)N(CC#N)C3=O)CC1)c1csc(N)n1 | 8 (≈ 15.9 µM) | 8 (≈ 15.9 µM) | 256 (≈ 508 µM) | 128 (≈ 254 µM) | 64 (≈ 127 µM) | 64 (≈ 127 µM) | 299 | 128 (≈ 254 µM) | 64 (≈ 127 µM) | 16 (≈ 31.8 µM) | 32 (≈ 63.5 µM) | 16 (≈ 31.8 µM)
CO/N=C(\C(=O)N1CCN(c2ccc3c4c(cccc24)C(=O)N(CCC(=O)O)C3=O)CC1)c1csc(N)n1 | 16 (≈ 29.8 µM) | 16 (≈ 29.8 µM) | 16 (≈ 29.8 µM) | 8 (≈ 14.9 µM) | 32 (≈ 59.6 µM) | 64 (≈ 119 µM) | 210 | 16 (≈ 29.8 µM) | 64 (≈ 119 µM) | 8 (≈ 14.9 µM) | 64 (≈ 119 µM) | 128 (≈ 239 µM)
O=C(O)c1cn(C2CC2)c2cc(N3CCNCC3)c(F)cc2c1=O [CIPROFLOXACIN] | 2 (≈ 6.04 µM) | 2 (≈ 6.04 µM) |  |  |  |  |  | 0.5 (≈ 1.51 µM) | 2 (≈ 6.04 µM) | 4 (≈ 12.1 µM) | 8 (≈ 24.1 µM) | 2 (≈ 6.04 µM)
CCCCN1C(=O)c2cccc3c(N4CCN(C(=O)/C(=N\OC)c5csc(N)n5)CC4)ccc(c23)C1=O | 8 (≈ 15.4 µM) | 16 (≈ 30.7 µM) | 64 (≈ 123 µM) | 32 (≈ 61.5 µM) | 64 (≈ 123 µM) | 64 (≈ 123 µM) | 563 | 128 (≈ 246 µM) | 64 (≈ 123 µM) | 8 (≈ 15.4 µM) | 64 (≈ 123 µM) | 64 (≈ 123 µM)
CO/N=C(\C(=O)N1CCN(c2ccc3c4c(cccc24)C(=O)N(CC(=O)O)C3=O)CC1)c1csc(N)n1 | 32 (≈ 61.2 µM) | 64 (≈ 122 µM) | 16 (≈ 30.6 µM) | 32 (≈ 61.2 µM) | 64 (≈ 122 µM) | 64 (≈ 122 µM) | 1000 | 128 (≈ 245 µM) | 256 (≈ 490 µM) | 64 (≈ 122 µM) | 64 (≈ 122 µM) | 128 (≈ 245 µM)
CN(C)[C@@H]1C(O)=C(C(N)=O)C(=O)[C@@]2(O)C(O)=C3C(=O)c4c(O)cccc4[C@@](C)(O)[C@H]3C[C@@H]12 [TETRACYCLINE] | 0.25 (≈ 0.563 µM) | 2 (≈ 4.5 µM) | 0.25 (≈ 0.563 µM) | 0.25 (≈ 0.563 µM) | 64 (≈ 144 µM) | 1 (≈ 2.25 µM) |  | 4 (≈ 9 µM) | 1 (≈ 2.25 µM) | 1 (≈ 2.25 µM) | 4 (≈ 9 µM) | 16 (≈ 36 µM)
CCCCCCN1C(=O)c2cccc3c(N4CCN(C(=O)/C(=N\OC)c5csc(N)n5)CC4)ccc(c23)C1=O | 8 (≈ 14.6 µM) | 64 (≈ 117 µM) | 64 (≈ 117 µM) | 32 (≈ 58.3 µM) | 64 (≈ 117 µM) | 64 (≈ 117 µM) | 306 | 128 (≈ 233 µM) | 16 (≈ 29.2 µM) | 32 (≈ 58.3 µM) | 64 (≈ 117 µM) | 64 (≈ 117 µM)
CO/N=C(\C(=O)N1CCN(c2ccc3c4c(cccc24)C(=O)N(Oc2ccccc2)C3=O)CC1)c1csc(N)n1 | 32 (≈ 57.5 µM) | 64 (≈ 115 µM) | 32 (≈ 57.5 µM) | 2 (≈ 3.59 µM) | 32 (≈ 57.5 µM) | 128 (≈ 230 µM) | 223 | 16 (≈ 28.7 µM) | 64 (≈ 115 µM) | 1 (≈ 1.8 µM) | 64 (≈ 115 µM) | 32 (≈ 57.5 µM)
CO/N=C(\C(=O)N1CCN(c2ccc3c4c(cccc24)C(=O)N(C(CO)CO)C3=O)CC1)c1csc(N)n1 | 32 (≈ 59.4 µM) | 64 (≈ 119 µM) | 32 (≈ 59.4 µM) | 4 (≈ 7.43 µM) | 32 (≈ 59.4 µM) | 64 (≈ 119 µM) | 232 | 16 (≈ 29.7 µM) | 64 (≈ 119 µM) | 4 (≈ 7.43 µM) | 32 (≈ 59.4 µM) | 128 (≈ 238 µM)
CO/N=C(\C(=O)N1CCN(c2ccc3c4c(cccc24)C(=O)N(c2ncc(C)s2)C3=O)CC1)c1csc(N)n1 | 128 (≈ 228 µM) | 64 (≈ 114 µM) | 64 (≈ 114 µM) | 128 (≈ 228 µM) | 32 (≈ 57 µM) | 16 (≈ 28.5 µM) | 234 | 128 (≈ 228 µM) | 128 (≈ 228 µM) | 8 (≈ 14.2 µM) | 64 (≈ 114 µM) | 1 (≈ 1.78 µM)
CO/N=C(\C(=O)N1CCN(c2ccc3c4c(cccc24)C(=O)N(n2cnnc2)C3=O)CC1)c1csc(N)n1 | 16 (≈ 30.1 µM) | 16 (≈ 30.1 µM) | 16 (≈ 30.1 µM) | 32 (≈ 60.2 µM) | 64 (≈ 120 µM) | 64 (≈ 120 µM) | 255 | 128 (≈ 241 µM) | 128 (≈ 241 µM) | 2 (≈ 3.76 µM) | 1 (≈ 1.88 µM) | 64 (≈ 120 µM)
CO/N=C(\C(=O)N1CCN(c2ccc3c4c(cccc24)C(=O)N(C)C3=O)CC1)c1csc(N)n1 | 8 (≈ 16.7 µM) | 8 (≈ 16.7 µM) | 64 (≈ 134 µM) | 32 (≈ 66.9 µM) | 32 (≈ 66.9 µM) | 64 (≈ 134 µM) | 343 | 64 (≈ 134 µM) | 16 (≈ 33.4 µM) | 4 (≈ 8.36 µM) | 16 (≈ 33.4 µM) | 8 (≈ 16.7 µM)
